{"source": "the NIST ThermoML archive (doi:10.1016/j.jct.2009.06.021)", "assay": "xn = mol fraction of the nth substance listed", "conditions": "for surface tension liquid-gas: Maximal bubble pressure; for mass density: 101 kPa, Liquid, Vibrating tube method", "note": "± gives the expanded uncertainty stated by the source.", "data": [{"smiles": "ClC(Cl)(Cl)Cl", "note": "[tetrachloromethane] + C[S+](C)[O-]", "values": [{"measurement": "surface tension liquid-gas", "setting": "298.15 K, x1 = 0.0994", "result": "38.6 ± 0.4", "unit": "mN/m"}, {"measurement": "surface tension liquid-gas", "setting": "298.15 K, x1 = 0.1969", "result": "34.6 ± 0.3", "unit": "mN/m"}, {"measurement": "surface tension liquid-gas", "setting": "298.15 K, x1 = 0.2513", "result": "32.9 ± 0.3", "unit": "mN/m"}, {"measurement": "surface tension liquid-gas", "setting": "298.15 K, x1 = 0.3299", "result": "30.8 ± 0.3", "unit": "mN/m"}, {"measurement": "surface tension liquid-gas", "setting": "298.15 K, x1 = 0.383", "result": "29.7 ± 0.3", "unit": "mN/m"}, {"measurement": "surface tension liquid-gas", "setting": "298.15 K, x1 = 0.5159", "result": "27.8 ± 0.3", "unit": "mN/m"}, {"measurement": "surface tension liquid-gas", "setting": "298.15 K, x1 = 0.6043", "result": "26.8 ± 0.3", "unit": "mN/m"}, {"measurement": "surface tension liquid-gas", "setting": "298.15 K, x1 = 0.6909", "result": "25.9 ± 0.3", "unit": "mN/m"}, {"measurement": "surface tension liquid-gas", "setting": "298.15 K, x1 = 0.7493", "result": "25.8 ± 0.3", "unit": "mN/m"}, {"measurement": "surface tension liquid-gas", "setting": "298.15 K, x1 = 0.8663", "result": "25.4 ± 0.3", "unit": "mN/m"}, {"measurement": "mass density", "setting": "298.15 K, x1 = 0.0674", "result": "1141.26 ± 0.37", "unit": "kg/m3"}, {"measurement": "mass density", "setting": "298.15 K, x1 = 0.101", "result": "1163.32 ± 0.39", "unit": "kg/m3"}, {"measurement": "mass density", "setting": "298.15 K, x1 = 0.1349", "result": "1185.11 ± 0.4", "unit": "kg/m3"}, {"measurement": "mass density", "setting": "298.15 K, x1 = 0.1643", "result": "1203.27 ± 0.42", "unit": "kg/m3"}, {"measurement": "mass density", "setting": "298.15 K, x1 = 0.2133", "result": "1232.98 ± 0.44", "unit": "kg/m3"}, {"measurement": "mass density", "setting": "298.15 K, x1 = 0.3045", "result": "1287.19 ± 0.48", "unit": "kg/m3"}, {"measurement": "mass density", "setting": "298.15 K, x1 = 0.4641", "result": "1370.58 ± 0.56", "unit": "kg/m3"}, {"measurement": "mass density", "setting": "298.15 K, x1 = 0.6022", "result": "1433.93 ± 0.61", "unit": "kg/m3"}, {"measurement": "mass density", "setting": "298.15 K, x1 = 0.7132", "result": "1481.07 ± 0.66", "unit": "kg/m3"}, {"measurement": "mass density", "setting": "298.15 K, x1 = 0.7604", "result": "1499.6 ± 0.68", "unit": "kg/m3"}, {"measurement": "mass density", "setting": "298.15 K, x1 = 0.8683", "result": "1539.93 ± 0.72", "unit": "kg/m3"}, {"measurement": "mass density", "setting": "298.15 K, x1 = 0.913", "result": "1555.64 ± 0.73", "unit": "kg/m3"}, {"measurement": "surface tension liquid-gas", "setting": "303.15 K, x1 = 0.0994", "result": "38 ± 0.4", "unit": "mN/m"}, {"measurement": "surface tension liquid-gas", "setting": "303.15 K, x1 = 0.1969", "result": "34.2 ± 0.3", "unit": "mN/m"}, {"measurement": "surface tension liquid-gas", "setting": "303.15 K, x1 = 0.2513", "result": "32.6 ± 0.3", "unit": "mN/m"}, {"measurement": "surface tension liquid-gas", "setting": "303.15 K, x1 = 0.3299", "result": "30.4 ± 0.3", "unit": "mN/m"}, {"measurement": "surface tension liquid-gas", "setting": "303.15 K, x1 = 0.383", "result": "29.2 ± 0.3", "unit": "mN/m"}, {"measurement": "surface tension liquid-gas", "setting": "303.15 K, x1 = 0.5159", "result": "27.1 ± 0.3", "unit": "mN/m"}, {"measurement": "surface tension liquid-gas", "setting": "303.15 K, x1 = 0.6043", "result": "26.2 ± 0.3", "unit": "mN/m"}, {"measurement": "surface tension liquid-gas", "setting": "303.15 K, x1 = 0.6909", "result": "25.3 ± 0.3", "unit": "mN/m"}, {"measurement": "surface tension liquid-gas", "setting": "303.15 K, x1 = 0.7493", "result": "25.1 ± 0.3", "unit": "mN/m"}, {"measurement": "surface tension liquid-gas", "setting": "303.15 K, x1 = 0.8663", "result": "24.6 ± 0.3", "unit": "mN/m"}, {"measurement": "mass density", "setting": "303.15 K, x1 = 0.0674", "result": "1135.93 ± 0.37", "unit": "kg/m3"}, {"measurement": "mass density", "setting": "303.15 K, x1 = 0.101", "result": "1157.83 ± 0.38", "unit": "kg/m3"}, {"measurement": "mass density", "setting": "303.15 K, x1 = 0.1349", "result": "1179.45 ± 0.4", "unit": "kg/m3"}, {"measurement": "mass density", "setting": "303.15 K, x1 = 0.1643", "result": "1197.47 ± 0.41", "unit": "kg/m3"}, {"measurement": "mass density", "setting": "303.15 K, x1 = 0.2133", "result": "1226.93 ± 0.43", "unit": "kg/m3"}, {"measurement": "mass density", "setting": "303.15 K, x1 = 0.3045", "result": "1280.68 ± 0.48", "unit": "kg/m3"}, {"measurement": "mass density", "setting": "303.15 K, x1 = 0.4641", "result": "1363.35 ± 0.55", "unit": "kg/m3"}, {"measurement": "mass density", "setting": "303.15 K, x1 = 0.6022", "result": "1425.99 ± 0.61", "unit": "kg/m3"}, {"measurement": "mass density", "setting": "303.15 K, x1 = 0.7132", "result": "1472.61 ± 0.65", "unit": "kg/m3"}, {"measurement": "mass density", "setting": "303.15 K, x1 = 0.7604", "result": "1490.94 ± 0.67", "unit": "kg/m3"}, {"measurement": "mass density", "setting": "303.15 K, x1 = 0.8683", "result": "1530.74 ± 0.71", "unit": "kg/m3"}, {"measurement": "mass density", "setting": "303.15 K, x1 = 0.913", "result": "1546.21 ± 0.72", "unit": "kg/m3"}, {"measurement": "surface tension liquid-gas", "setting": "308.15 K, x1 = 0.0994", "result": "37.4 ± 0.4", "unit": "mN/m"}, {"measurement": "surface tension liquid-gas", "setting": "308.15 K, x1 = 0.1969", "result": "33.4 ± 0.3", "unit": "mN/m"}, {"measurement": "surface tension liquid-gas", "setting": "308.15 K, x1 = 0.2513", "result": "31.8 ± 0.3", "unit": "mN/m"}, {"measurement": "surface tension liquid-gas", "setting": "308.15 K, x1 = 0.3299", "result": "29.8 ± 0.3", "unit": "mN/m"}, {"measurement": "surface tension liquid-gas", "setting": "308.15 K, x1 = 0.383", "result": "28.7 ± 0.3", "unit": "mN/m"}, {"measurement": "surface tension liquid-gas", "setting": "308.15 K, x1 = 0.5159", "result": "26.6 ± 0.3", "unit": "mN/m"}, {"measurement": "surface tension liquid-gas", "setting": "308.15 K, x1 = 0.6043", "result": "25.6 ± 0.3", "unit": "mN/m"}, {"measurement": "surface tension liquid-gas", "setting": "308.15 K, x1 = 0.6909", "result": "24.7 ± 0.3", "unit": "mN/m"}, {"measurement": "surface tension liquid-gas", "setting": "308.15 K, x1 = 0.7493", "result": "24.5 ± 0.3", "unit": "mN/m"}, {"measurement": "surface tension liquid-gas", "setting": "308.15 K, x1 = 0.8663", "result": "24.2 ± 0.3", "unit": "mN/m"}, {"measurement": "mass density", "setting": "308.15 K, x1 = 0.0674", "result": "1127.96 ± 0.35", "unit": "kg/m3"}, {"measurement": "mass density", "setting": "308.15 K, x1 = 0.101", "result": "1150.79 ± 0.38", "unit": "kg/m3"}, {"measurement": "mass density", "setting": "308.15 K, x1 = 0.1349", "result": "1172.11 ± 0.39", "unit": "kg/m3"}, {"measurement": "mass density", "setting": "308.15 K, x1 = 0.1643", "result": "1192.66 ± 0.41", "unit": "kg/m3"}, {"measurement": "mass density", "setting": "308.15 K, x1 = 0.2133", "result": "1222.1 ± 0.43", "unit": "kg/m3"}, {"measurement": "mass density", "setting": "308.15 K, x1 = 0.3045", "result": "1273.53 ± 0.47", "unit": "kg/m3"}, {"measurement": "mass density", "setting": "308.15 K, x1 = 0.4641", "result": "1355.26 ± 0.54", "unit": "kg/m3"}, {"measurement": "mass density", "setting": "308.15 K, x1 = 0.6022", "result": "1418.04 ± 0.6", "unit": "kg/m3"}, {"measurement": "mass density", "setting": "308.15 K, x1 = 0.7132", "result": "1464.13 ± 0.64", "unit": "kg/m3"}, {"measurement": "mass density", "setting": "308.15 K, x1 = 0.7604", "result": "1482.25 ± 0.66", "unit": "kg/m3"}, {"measurement": "mass density", "setting": "308.15 K, x1 = 0.8683", "result": "1521.44 ± 0.7", "unit": "kg/m3"}, {"measurement": "mass density", "setting": "308.15 K, x1 = 0.913", "result": "1536.79 ± 0.71", "unit": "kg/m3"}, {"measurement": "surface tension liquid-gas", "setting": "313.15 K, x1 = 0.0994", "result": "36.8 ± 0.4", "unit": "mN/m"}, {"measurement": "surface tension liquid-gas", "setting": "313.15 K, x1 = 0.1969", "result": "33 ± 1", "unit": "mN/m"}, {"measurement": "surface tension liquid-gas", "setting": "313.15 K, x1 = 0.2513", "result": "31.4 ± 0.3", "unit": "mN/m"}, {"measurement": "surface tension liquid-gas", "setting": "313.15 K, x1 = 0.3299", "result": "29.2 ± 0.3", "unit": "mN/m"}, {"measurement": "surface tension liquid-gas", "setting": "313.15 K, x1 = 0.383", "result": "28.1 ± 0.3", "unit": "mN/m"}, {"measurement": "surface tension liquid-gas", "setting": "313.15 K, x1 = 0.5159", "result": "26 ± 1", "unit": "mN/m"}, {"measurement": "surface tension liquid-gas", "setting": "313.15 K, x1 = 0.6043", "result": "25 ± 0.3", "unit": "mN/m"}, {"measurement": "surface tension liquid-gas", "setting": "313.15 K, x1 = 0.6909", "result": "24.3 ± 0.3", "unit": "mN/m"}, {"measurement": "surface tension liquid-gas", "setting": "313.15 K, x1 = 0.7493", "result": "23.9 ± 0.3", "unit": "mN/m"}, {"measurement": "surface tension liquid-gas", "setting": "313.15 K, x1 = 0.8663", "result": "23.7 ± 0.3", "unit": "mN/m"}, {"measurement": "mass density", "setting": "313.15 K, x1 = 0.0499", "result": "1116.12 ± 0.34", "unit": "kg/m3"}, {"measurement": "mass density", "setting": "313.15 K, x1 = 0.101", "result": "1146.87 ± 0.37", "unit": "kg/m3"}, {"measurement": "mass density", "setting": "313.15 K, x1 = 0.1349", "result": "1168.13 ± 0.39", "unit": "kg/m3"}, {"measurement": "mass density", "setting": "313.15 K, x1 = 0.1643", "result": "1185.85 ± 0.4", "unit": "kg/m3"}, {"measurement": "mass density", "setting": "313.15 K, x1 = 0.2133", "result": "1214.87 ± 0.42", "unit": "kg/m3"}, {"measurement": "mass density", "setting": "313.15 K, x1 = 0.3045", "result": "1267.49 ± 0.47", "unit": "kg/m3"}, {"measurement": "mass density", "setting": "313.15 K, x1 = 0.4641", "result": "1348.78 ± 0.54", "unit": "kg/m3"}, {"measurement": "mass density", "setting": "313.15 K, x1 = 0.6022", "result": "1410.05 ± 0.59", "unit": "kg/m3"}, {"measurement": "mass density", "setting": "313.15 K, x1 = 0.7132", "result": "1455.61 ± 0.63", "unit": "kg/m3"}, {"measurement": "mass density", "setting": "313.15 K, x1 = 0.7604", "result": "1473.5 ± 0.65", "unit": "kg/m3"}, {"measurement": "mass density", "setting": "313.15 K, x1 = 0.8683", "result": "1512.23 ± 0.69", "unit": "kg/m3"}, {"measurement": "mass density", "setting": "313.15 K, x1 = 0.913", "result": "1527.34 ± 0.7", "unit": "kg/m3"}]}]}
